Data reported in patent publication US9091700B2, “Modified peptide substrate” (McMaster University, priority 2005, dated 2015).

How the values were obtained:
Assay type in all cases: biochemical
human alpha thrombin = target: T1, human alpha thrombin (Homo sapiens, UniProt P00734); test: Reaction of thrombin with S2238 SEPHAROSE beads or free S2238, absorbance at 405 nm of supernatant; details: + thrombin + TSP buffer; 100 nM thrombin, 23° C.
T1 construct: 100 nM human alpha thrombin (Enzyme Research Laboratories); purchased Enzyme Research Laboratories
Protocol: 0.5 mL of resuspended S2238 SEPHAROSE™ beads was placed in each of 2 microfuge tubes (1.5 mL capacity), followed by centrifugation at 12000 g for 1 minute and removal of the resultant supernatant. Beads in each tube were resuspended in 0.5 mL of 0.02 M Tris-HCl 0.15 M NaCl 0.6% polyethylene glycol 8000 pH 7.4 (TSP), centrifuged for 1 minute and the resultant supernatant discarded. A solution of 100 nM human alpha thrombin (Enzyme Research Laboratories) in TSP was prepared. 0.5 mL of thrombin was added to one tube of packed S2238 SEPHAROSE™ beads (tube 1) and 0.5 mL of TSP was added to the other tube of S2238-SEPHAROSE™ beads (tube 2). In a separate empty tube, 0.05 mL of free (not conjugated to beads) S2238 stock solution (12.5 mg of S2238/mL of H2O)+0.15 mL of TSP+0.5 mL of 100 nM thrombin were added (tube 3). Finally, in a separate empty tube, 0.05 mL of free S2238 stock solution+0.65 mL of TSP were added (tube 4). All of the tubes were capped and tubes+contents were gently shaken by inversion manually for 10 min at 23° C. Following inversion mixing, tubes were centrifuged at 12000 g for 1 min and 0.2 mL of supernatant fluid from each tube quickly removed to separate wells of a 96-well microtitre plate and the absorbance at 405 nm measured.

[1] = test system: Total Thrombin (Free Thrombin+Thrombin-A2M); test: Plasma thrombin generation, subsamples detected with free S2238 or S2238-Agarose; details: for Thrombin activity detected (absorbance at 405 nm), in words: plasma samples with free thrombin+thrombin-A2M, FIG. 5
Protocol: Plasma is taken and the fibrinogen removed by reaction with ancrod enzyme to form a fibrin clot that is wound out to give the resultant defibrinated plasma. At time zero, tissue factor (Thromborel S)+CaCl2 are added to start thrombin generation in the pre-warmed defibrinated plasma. At certain time points, subsamples from the reaction mixture are taken into Na2EDTA to stop further thrombin generation by chelating the Ca^2+. Thrombin activity in the time sample (containing both free thrombin and thrombin bound to alpha-2-macroglobulin (A2M)) was then detected by mixing with either free S2238 substrate in buffer or sterically hindered S2238 substrate (S2238-Agarose beads) suspended in buffer. In order to determine the ability of free S2238 or S2238-Agarose to detect thrombin-A2M, a similar experiment to the above method was carried out, except that all free thrombin was inhibited first by mixing with antithrombin+heparin prior to incubation with substrate. […] Thus, early time point samples (i.e. 60 seconds) would contain more free thrombin than thrombin-A2M, while later time point samples (i.e. 300 seconds) would contain much more thrombin-A2M than free thrombin.
12 mm (ID)×75 mm (L) polycarbonate plastic test tubes were used for plasma thrombin generation. • 1. Defibrination of Plasma: • a. 800 μL of Plasma was incubated with 10 μL of 30 U/mL Ancrod stock at 37° C. for 10 minutes. • b. After incubation, fibrin clot that formed was wound out on a plastic rod, leaving supernatant defibrinated plasma. • c. Test tube was placed on ice for 10 minutes. • d. After 10-minute incubation, any further clots were wound out. • e. Defibrinated plasma was stored on ice. • 2. The activator solution (12.5 μL Thromborel S+4.0 μL 1M CaCl2+183.5 μL HBS) was warmed at 37° C. in a tube. In a separate tube, 150 μL of defibrinated plasma was warmed at 37° C. • 3. At t=0, 150 μL of activator solution was mixed with 150 μL of defibrinated plasma, at 37° C. • 4. […] Aliquots of […] of supernatant from each sample were placed in 96-well plate wells and the absorbance at 405 nm measured.

thrombin [2] = target: T2, thrombin (Homo sapiens, UniProt P00734); test: Reaction of soluble S2238 in 96-well plate, change in absorbance at 405 nm over 100 seconds; details: for ΔA: absorbance 405 nm over 100 seconds
T2 construct: 0.2 mg thrombin (Enzyme Research Laboratories, South Bend, 1N, USA)/mL HBS; purchased Enzyme Research Laboratories
Protocol: (§1) A solution of 0.05M HEPES 0.15M NaCl pH 7.5 (HBS) was prepared. Thrombin-A2M was prepared by reaction of 40 μL of 5 mg A2M (Sigma)/mL+40 μL of 0.2 mg thrombin (Enzyme Research Laboratories, South Bend, 1N, USA)/mL HBS for 40 to 60 minutes at 23° C. (solution #1). Solutions of 40 μL of 5 mg A2M/mL+40 μL HBS (solution #2) and 40 μL of 0.2 mg thrombin/mL+40 μL HBS (solution #3) were prepared.
(§2) The following reactions with S2238 were carried out in 96-well plate wells. • 1. 5 μL of solution #1 were added to 10 uL of 0.5 mg antithrombin (purified antithrombin III protein, Affinity Biologicals, Ancaster, Ontario, Canada)/mL HBS+1 μL of 100 U heparin (Leo Laboratories, Ajax, Ontario, Canada)/mL HBS+74 μL HBS. After 10 minutes, 10 μL of 3.192 mg S2238/mL H2O was added with mixing, absorbance readings at 405 nm measured every 10 seconds for 100 seconds and the change in absorbance over that time recorded (AA). • 2. 5 μL of solution #2 were added to 10 uL of 0.5 mg antithrombin/mL HBS+1 μL of 100 U heparin/mL HBS+74 μL HBS. After 10 minutes, 10 μL of 3.192 mg S2238/mL H2O was added with mixing, absorbance readings at 405 nm measured every 10 seconds for 100 seconds and the change in absorbance over that time recorded (AA). • 3. 5 μL of solution #3 were added to 10 uL of 0.5 mg antithrombin/mL HBS+1 μL of 100 U heparin/mL HBS+74 μL HBS. After 10 minutes, 10 μL of 3.192 mg S2238/mL H2O was added with mixing, absorbance readings at 405 nm measured every 10 seconds for 100 seconds and the change in absorbance over that time recorded (AA). • 4. 5 μL of solution #1 were added to 85 uL of HBS. After 10 minutes, 10 μL of 3.192 mg S2238/mL H2O was added with mixing, absorbance readings at 405 nm measured every 10 seconds for 100 seconds and the change in absorbance over that time recorded (AA). • 5. 5 μL of solution #2 were added to 85 uL of HBS. After 10 minutes, 10 μL of 3.192 mg S2238/mL H2O was added with mixing, absorbance readings at 405 nm measured every 10 seconds for 100 seconds and the change in absorbance over that time recorded (AA). • 6. 5 μL of solution #3 were added to 85 uL of HBS. After 10 minutes, 10 μL of 3.192 mg S2238/mL H2O was added with mixing, absorbance readings at 405 nm measured every 10 seconds for 100 seconds and the change in absorbance over that time recorded (LA).

A2M = target: T3, A2M (Homo sapiens, UniProt P01023); test: as above; details: absorbance 405 nm over 100 seconds
T3 construct: purchased Sigma
T3 sequence (P01023 24-1474): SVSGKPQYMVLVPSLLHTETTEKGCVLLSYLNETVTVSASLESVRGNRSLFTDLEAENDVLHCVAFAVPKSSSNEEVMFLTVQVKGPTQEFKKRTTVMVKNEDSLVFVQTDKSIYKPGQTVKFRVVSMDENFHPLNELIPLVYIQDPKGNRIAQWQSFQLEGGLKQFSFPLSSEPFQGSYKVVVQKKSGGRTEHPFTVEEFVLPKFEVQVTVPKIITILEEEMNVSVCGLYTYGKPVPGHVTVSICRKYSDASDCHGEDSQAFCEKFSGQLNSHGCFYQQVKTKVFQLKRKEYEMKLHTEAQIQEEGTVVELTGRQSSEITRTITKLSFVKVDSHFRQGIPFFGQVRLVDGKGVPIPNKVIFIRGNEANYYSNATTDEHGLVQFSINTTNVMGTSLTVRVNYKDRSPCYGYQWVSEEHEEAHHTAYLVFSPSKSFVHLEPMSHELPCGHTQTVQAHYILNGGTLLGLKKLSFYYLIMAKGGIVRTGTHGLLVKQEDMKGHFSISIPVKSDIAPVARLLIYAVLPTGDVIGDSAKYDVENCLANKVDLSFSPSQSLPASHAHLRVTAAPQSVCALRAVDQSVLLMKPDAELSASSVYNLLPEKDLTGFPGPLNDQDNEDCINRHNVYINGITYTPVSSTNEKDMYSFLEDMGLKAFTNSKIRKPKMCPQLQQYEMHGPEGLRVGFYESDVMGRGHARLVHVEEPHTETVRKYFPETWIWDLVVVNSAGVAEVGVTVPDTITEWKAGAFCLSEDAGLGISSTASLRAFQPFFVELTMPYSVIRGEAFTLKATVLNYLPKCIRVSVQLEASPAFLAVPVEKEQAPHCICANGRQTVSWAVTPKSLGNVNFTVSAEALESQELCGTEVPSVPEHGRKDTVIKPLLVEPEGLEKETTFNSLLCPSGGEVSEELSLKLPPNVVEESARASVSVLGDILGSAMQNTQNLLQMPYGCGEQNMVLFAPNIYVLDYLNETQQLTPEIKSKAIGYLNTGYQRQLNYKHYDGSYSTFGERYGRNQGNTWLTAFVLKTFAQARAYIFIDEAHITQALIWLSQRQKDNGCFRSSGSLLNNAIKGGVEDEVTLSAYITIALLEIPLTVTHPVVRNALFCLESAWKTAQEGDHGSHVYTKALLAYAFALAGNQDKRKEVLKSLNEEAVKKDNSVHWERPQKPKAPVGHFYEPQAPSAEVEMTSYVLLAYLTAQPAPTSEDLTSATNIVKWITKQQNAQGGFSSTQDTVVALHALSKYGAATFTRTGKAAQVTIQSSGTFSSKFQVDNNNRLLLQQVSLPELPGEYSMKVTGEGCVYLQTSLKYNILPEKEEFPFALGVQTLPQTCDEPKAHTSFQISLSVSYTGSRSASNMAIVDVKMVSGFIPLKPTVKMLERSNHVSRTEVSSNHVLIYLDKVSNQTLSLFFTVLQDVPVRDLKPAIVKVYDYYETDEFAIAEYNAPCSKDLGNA
Protocol: as §1, §2

thrombin-A2M [3] = target: T4, thrombin-A2M (Homo sapiens, UniProt P00734); test: as above; details: for ΔA: absorbance 405 nm over 100 seconds
T4 construct: 0.2 mg thrombin (Enzyme Research Laboratories, South Bend, 1N, USA)/mL HBS; purchased Enzyme Research Laboratories (thrombin); Sigma (A2M)
Protocol: as §1, §2

thrombin-A2M [4] = target: T4, thrombin-A2M; test: Plasma thrombin generation, free thrombin neutralized by antithrombin+heparin before substrate; details: plasma samples with thrombin-A2M only (free thrombin neutralized by antithrombin+heparin); FIG. 5
Protocol: Plasma is taken and the fibrinogen removed by reaction with ancrod enzyme to form a fibrin clot that is wound out to give the resultant defibrinated plasma. At time zero, tissue factor (Thromborel S)+CaCl2 are added to start thrombin generation in the pre-warmed defibrinated plasma. At certain time points, subsamples from the reaction mixture are taken into Na2EDTA to stop further thrombin generation by chelating the Ca^2+. Thrombin activity in the time sample (containing both free thrombin and thrombin bound to alpha-2-macroglobulin (A2M)) was then detected by mixing with either free S2238 substrate in buffer or sterically hindered S2238 substrate (S2238-Agarose beads) suspended in buffer. […]
12 mm (ID)×75 mm (L) polycarbonate plastic test tubes were used for plasma thrombin generation. • 1. […] Aliquots of 2004 of supernatant from each sample were placed in 96-well plate wells and the absorbance at 405 nm measured.
The experiment described above was repeated, except that at step 4, 25 μL of time sample was added to 5 μL of 50 U antithrombin/mL PBS (7.2 mg antithrombin/mL)+2 μl of 100 U heparin/mL 0.15M NaCl on ice. […] Absorbance detected at 405 nm was essentially due to substrate reaction with thrombin-A2M alone (free thrombin having been neutralized by antithrombin+heparin).

thrombin [5] = target: T2, thrombin; test: Further comparison of reactivities (Example 3), change in absorbance; details: reactant Thrombin
Protocol: (§3) Thrombin and thrombin-A2M were added to samples of S2238 and S2238-Agarose.

thrombin-A2M [6] = target: T4, thrombin-A2M; test: as above; details: reactant thrombin-A2M
Protocol: as §3

Absorbance at 405 nm of supernatant after 10 minutes incubation and 1 minute centrifugation (human alpha thrombin): 1.143
ΔA (thrombin [2]; Thrombin added): 0.95
Reaction with free thrombin (in words) (thrombin [2]; summary of Table 1): reacts readily
ΔA (thrombin [2]; thrombin + antithrombin + heparin added): 0
ΔA (A2M; A2M + antithrombin + heparin added): 0
ΔA (A2M; A2M added): 0
ΔA (thrombin-A2M [3]; Thrombin-A2M added): 0.8
Reaction with thrombin-A2M (in words) (thrombin-A2M [3]; summary of Table 1): reacts readily
ΔA (thrombin-A2M [3]; thrombin-A2M + antithrombin + heparin added): 0.8
Thrombin activity detected (absorbance at 405 nm), in words (thrombin-A2M [4]): significant thrombin activity
Thrombin Activity (Δ absorbance/minute) (thrombin [5]): 0.57 Δ absorbance/minute
Thrombin Activity (Δ absorbance/minute) (thrombin-A2M [6]): 0.48 Δ absorbance/minute
Substance: H-D-Phe-Pip-Arg-pNA [S2238]
Which thrombin species accounts for the detected activity (comparison of samples) ([1]; comparison of free thrombin+thrombin-A2M samples with thrombin-A2M only samples, 60 sec or 300 sec): the vast majority of soluble S2238 activity is due to thrombin-A2M
Thrombin activity detected (absorbance at 405 nm), in words ([1]; 60 seconds after plasma activation): significant activity
Thrombin activity detected (absorbance at 405 nm), in words ([1]; 300 seconds after plasma activation): significant thrombin substrate activity
